Entries after “also recorded” stand apart in the source; their conditions may differ.
What was measured:
[1] = tested on: rat model of experimental autoimmune anterior uveitis (EAAU); assay: Melanin associated antigen (MAA) induced experimental autoimmune anterior uveitis (EAAU) model; type: in vivo
Excerpt: One model used to evaluate the therapeutic potential of ShK-186 in autoimmune eye diseases such as uveitis was the melanin associated antigen (MAA) induced experimental autoimmune anterior uveitis (EAAU). In this model, male Lewis rats 5-10 week old (Charles River) are immunized with MAA emulsified in complete Freund's adjuvant (CFA) subcutaneously and also receive a single intraperitoneal injection of pertussis toxin (0.2 to 1 mcg/animal). Symptoms of disease begin to appear by day 10 and peak by day 18 post immunization. The animals typically recover by day 25.
Preparation of the MAA. MAA was prepared following the procedure outlined by Simpsom et al., Eye 11, 206-208, (1997) with some modifications. The iris and ciliary body structure were dissected from 25 fresh pigmented cow eyes. The tissue was cut into small pieces and then homogenized in cold PBS. The homogenate was spun at 4000 g for 10 minutes, washed three times with PBS and then put through a detergent extraction with 2% Triton X-100, rotating for 3 hours at room temperature. The resulting material was again spun and washed three times with PBS and subject to another detergent extraction this time using 2% SDS, rotating for 3 hours at 37° C. This material was washed three times with PBS followed by three washes with H2O and a final wash with 70% ethanol. The MAA pellet was placed under a vacuum for approximately 15 min, resulting in dried antigen material stored frozen at −20° C.
Preparation of MAA:CFA emulsions. For the emulsion used for the experiment whose results are shown in FIG. 4, 50 milligrams of MAA were resuspended in 3.8 mL of PBS, and after vortexing briefly the suspension, was sonicated for 30 seconds three times incubating on ice for 30 seconds in between. This slurry was passed through a 100 μm cell strainer, thicker material was pressed through using a syringe plunger. The protein content of the suspension was determined to be 3.27 mg/mL using a commercially available BCA kit (Pierce 23225), and was stored frozen at −20° C. until use. On the day of immunization (day 0), the stock MAA was thawed at room temperature and vortexed briefly before a working dilution of 600 μg/mL was made. This solution was then mixed drop wise 1:1 with CFA while vortexing, for a final antigen concentration of 300 μg/mL (or 30 μg per animal). Emulsions were allowed to vortex an additional 5 minutes before being loaded into syringes and passed through an 18 G emulsifying bridge until very thick. Emulsions were injected the same day, 50 μL subcutaneous to each footpad, 100 μL total per animal, according to group. FIGS. 4A-D show the pathology associated with this disease model and the effects of ShK-186 topical administration on the occurrence and severity of disease.
Eyes were given individual scores based on pupil function (miosis), iris structure, presence of cells in the anterior chamber, and presence of protein in the anterior chamber (flare). Scores were then converted into a composite clinical score for each day.
For this analysis, sections of eyes previously fixed in 10% formalin were scored for iris and ciliary body structure and the degree of inflammatory cell infiltration to the stroma of the iris and/or ciliary body and anterior chamber according to disease parameters outlined by Kim et al., supra (1997); this was done by an independent veterinary pathologist. In FIG. 4C (1.) a control healthy eye (10×) is shown; (2.) & (4.) show the eye from an animal treated with vehicle that was scored a 2 (10×, 40×); (3.) & (5.) show the eye from an animal treated three times daily with 0.1% ShK-186 for 8 days followed by 1% ShK-186 for 10 days which was given a histopathology score of 0 (10×, 40×).
Clinical observations were made of each animal using a slit lamp on day 13 post induction of EAAU by immunization with an adjuvanted MAA emulsion. […]

[2] = tested on: unstimulated or activated T cells or macrophages from dry-eye or uveitis patients; assay: Ex vivo cytokine expression in T cells or macrophages from dry eye or uveitis patients; type: cell-based, human; details: ex vivo addition of ShK-186, intracellular staining/flow cytometry or multiplexing ELISA
Excerpt: (§1) In order to carry out functional assays, PBMCs from uveitis or dry eye patients and healthy controls are isolated. In the first phase of the example, the cells are either tested shortly after […] without ex vivo stimulation or activated ex vivo with anti-CD3 and anti-CD28 antibodies or mitogens and then subjected to immunostaining and multicolor flow cytometry to study expression levels of Kv1.3 channel on the surface of TEM within the CD4 and CD8+ T-cell subsets. Cells isolated from patients are expected to be high in expression of Kv1.3 without stimulation ex vivo, but this expression could increase upon activation ex vivo. […] Cytokines including IFN-γ, IL-2, IL-4, IL-10, IL-17, IL-21, and IL-22, perforin, and granzyme B are detected by intracellular staining and flow cytometry in resting or activated cells in the presence or absence of toxin-based therapeutic peptide. Additionally, they can be quantitated by an assay such as multiplexing ELISA of collected supernatants. […] This reduction can be measured by quantification of [^3H] thymidine incorporation or the fluorescent dye CFSE, among other standard immunological methods.

[3] = tested on: human whole blood stimulated with thapsigargin; assay: Suppression of thapsigargin-stimulated inflammatory cytokine production in human whole blood; type: cell-based; details: FIG. 1
Excerpt: (§2) This Example explores the ability of pharmaceutical compositions including toxin-based therapeutic peptides disclosed herein to reduce pro-inflammatory cytokine secretion caused by thapsigargin (Sigma-Aldrich, St. Louis, Mo., USA). Thapsigargin stimulates proinflammatory cytokine release by inhibiting the Ca2+ ion pump proteins of intracellular membranes in the sarcoplasmic reticulum and endoplasmic reticulum of microsomes. This inhibition results in a rapid release of Ca2+ stores and subsequent activation of plasma membrane calcium channels.
(§3) Preparation of primary blood cells. Whole blood and peripheral blood mononuclear cells (PBMCs) were used to test the suitability of an ShK-based therapeutic peptide as disclosed herein for treating a subject with an ophthalmic condition including dry eye. Whole blood was directly aliquoted to cell culture for experimental assays without any additional processing.
(§4) Treatment of primary blood cells. ShK-186 was serially diluted in cRPMI to 4× final concentration working stock. 50 μL of working stock was added to 6 wells of a 96-well cell culture plate per concentration of ShK-based peptide. 50 μL of cRPMI without ShK-based peptide was used as control treatment in positive control (no ShK-based peptide, thapsigargin stimulus) and in negative control (no ShK-based peptide, no thapsigargin stimulus) wells. 100 μL whole blood or 200,000 PBMCs in complete RPMI was added to each well of the 96-well cell culture plate. Cells with ShK-based peptide or media control were incubated at 37° C. and 5% CO2 for one hour. After one hour, 50 μL of 40 uM thapsigargin stimulus was added to all wells except for negative control wells which received 50 μL 0.4% DMSO to 0.1% final concentration. Cells were incubated for 48 hours.
(§5) Analysis of ShK-based peptide treated and thapsigargin stimulated cells. 48 hours after stimulation by thapsigargin, 96-well plates were centrifuged at 2000 RPM for 5 minutes. The supernatant was carefully transferred to a sterile 96-well plate for sample analysis. Cytokines were detected using specific antibodies conjugated to magnetic beads and a secondary antibody that reacts with Streptavidin/Phycoerythrin to produce a fluorescent signal. The bound beads were detected and quantified using the Magpix instrument (Luminex Corp., Austin, Tex., USA), although similar techniques as are known in the art may be used to measure protein production, such as for example an ELISA, using methods of detection including fluorescent and colorimetric methods.

[4] = tested on: T cells or macrophages from dry-eye or uveitis patients; assay: Ex vivo proliferation of T cells or macrophages during ex vivo activation; type: cell-based, human; details: [3H] thymidine incorporation or CFSE
Excerpt: as §1

[5] = tested on: human peripheral blood mononuclear cells (PBMCs) stimulated with thapsigargin; assay: Suppression of thapsigargin-stimulated inflammatory cytokine production in human PBMCs; type: cell-based; details: FIG. 2
Excerpt: as §2, §3
PBMCs were isolated from donor blood by density gradient centrifugation as follows. Blood was collected in collection tubes containing sodium heparin as an anticoagulant and a cell separation medium including a polyester gel and a density gradient liquid (BD Vacutainer CPT). The samples were centrifuged at 1500 RCF for 20 minutes at room temperature. The cell layer containing mononuclear cells and platelets lies just below the plasma layer and was collected into a separate 15 mL conical tube using a Pasteur Pipette. The cells were washed twice with PBS and pelleted by centrifugation to remove the supernatant. The purified PBMCs were resuspended in complete RPMI (cRPMI) cell culture media and plated to the appropriate density for the assay.
as §4, §5

[6] = Local (eye) and systemic (plasma) drug levels after topical ocular administration, Sprague-Dawley rats, ELISA; type: in vivo, rat
Protocol: Three female 6-8 week old Sprague-Dawley rats (Indianapolis, Ind., USA) were dosed three times per day with topically administered 10 μL of P6N (sodium phosphate (10 mM), sodium chloride (0.8%), and Polysorbate 20 (0.05%) at pH 6.0) on the left eye (LE) and 10 μL of 0.5% ShK-186 in P6N on the right eye (RE) for 21 days. Blood was collected at 3, 7, 12, 14, 17, and 21 days and processed to plasma. […] ShK-186 levels in collected samples were measured using a standard direct ELISA method.

[7] = day 18 post immunization, 0.1% then 1% ShK-186 topically
[8] = whole blood treated with ShK-186 one hour prior to thapsigargin, supernatant 48 hours after stimulation
[9] = whole blood, thapsigargin stimulation
[10] = PBMCs treated with ShK-186 one hour prior to thapsigargin, supernatant 48 hours after stimulation
[11] = PBMCs, thapsigargin stimulation

With “(L-PhosphoTyr)-AEEAc-RSCIDTIPKSRCTAFQCKHSMKYRLSFCRKTCGTC-amide [ShK-186]” the gross pathology ([1]; ShK-186 topical administration versus vehicle (P6N), FIG. 4B) was “reduced”, the “composite clinical score of animal 4-8” value ([1]; day 18 post immunization, 0.1% ShK-186 for 9 days then 1% for 10 days topically, vehicle animal 3-2 scored 13) was 0 and the “cells in the anterior chamber score of animal 4-8” value [1, 7] was 0. The “iris vessels and structure score of animal 4-8” value [1, 7] was 0, the “protein in the anterior chamber (flare) score of animal 4-8” value [1, 7] was 0 and the “pupil score of animal 4-8” value [1, 7] was 0. For the same substance, the histopathology ([1]; eyes collected day 19 post immunization, H&E sections, FIG. 4C) was “reduces”, the “composite clinical score versus vehicle” value ([1]; slit lamp, days 11, 13, 15, 18 post induction, topical three times daily 0.1% day 0-8 and 1% ShK-186 day 9-18, N=8 rats/16 eyes) was “significantly lower” and the “histopathology score of an eye from a treated animal” value ([1]; three times daily 0.1% ShK-186 followed by 1% ShK-186 for 10 days, vehicle eye scored 2) was 0. For the same substance, the “expression of cytokines (IFN-γ, IL-2, IL-4, IL-10, IL-17, IL-21, IL-22, perforin, granzyme B)” value [2] was “significantly reduces”, the “suppression of IFN-γ level” value [3, 8] was “dose-dependent manner; also recorded: suppressed” and the “suppression of IL-2 level” value [3, 8] was “dose-dependent manner; also recorded: suppressed”. The “suppression of IL-4 level” value [3, 8] was “dose-dependent manner; also recorded: suppressed”, the “suppression of IL-17 level” value [3, 8] was “dose-dependent manner; also recorded: suppressed” and the “IC50, IFN-γ suppression” value [3, 9] was “picomolar range”. The “IC50, IL-2 suppression” value [3, 9] was “picomolar range”, the “IC50, IL-4 suppression” value [3, 9] was “picomolar range” and the “IC50, IL-17 suppression” value [3, 9] was “picomolar range”. The “ex vivo proliferation of T cells or macrophages” value [4] was “significantly reduces”, the “suppression of IFN-γ level” value [5, 10] was “suppressed; also recorded: dose-dependent manner” and the “suppression of IL-2 level” value [5, 10] was “suppressed; also recorded: dose-dependent manner”. The “suppression of IL-4 level” value [5, 10] was “suppressed; also recorded: dose-dependent manner”, the “suppression of IL-17 level” value [5, 10] was “suppressed; also recorded: dose-dependent manner” and the “IC50, IFN-γ suppression” value [5, 11] was “picomolar range”. The “IC50, IL-2 suppression” value [5, 11] was “picomolar range”, the “IC50, IL-4 suppression” value [5, 11] was “picomolar range” and the “IC50, IL-17 suppression” value [5, 11] was “picomolar range”. For the same substance, the “ShK-186 in plasma (systemic exposure)” value ([6]; 0.5% ShK-186 topically to right eye three times per day for 21 days) was “no detectable and not”, the “ShK-186 concentration in aqueous fluid of the treated right eye (RE)” value ([6]; 10 μL of 0.5% ShK-186 in P6N topically three times per day for 21 days, samples at 21 days) was “significant concentrations” and the “ShK-186 in samples from the untreated left eye (LE)” value ([6]; right eye dosed 0.5% ShK-186 three times per day for 21 days, left eye vehicle) was “no detectable”.

For “(L-Tyr)-AEEAc-RSCIDTIPKSRCTAFQCKHSMKYRLSFCRKTCGTC-amide [ShK-198]”, the “clinical score (cells in the anterior chamber; protein in the anterior chamber or flare)” value ([1]; slit lamp day 13 post induction, 1% ShK-198 topically three times daily versus P6N vehicle, N=10 rats/20 eyes) was “reduces”.

— patent US9937230B2, “Ophthalmic uses of toxin-based therapeutic peptides and pharmaceutical compositions thereof” (Kineta One, LLC, priority 2013, dated 2018)
